# Measured values from the supplement of paper PMC12463676, “Small-molecule dissolution of stress granules by redox modulation benefits ALS models” (Nature Chemical Biology, 2025).
# Assays:
# [1] = compound: NC(=O)CCCCC1CCSS1 [lipoamide]; assay: thermal stability z-score vs DMSO; higher = more thermally stabilized by treatment; settings: HeLa, lipoamide concentration 100 µM
# Procedure: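 Cellular thermal proteome profiling in HeLa cells. Cells were treated with 100 µM lipoamide for 1 h, with or without 1 mM arsenate for a further 1 h, then heated to ten temperatures (37-66.3 °C), and soluble protein was quantified by TMT mass spectrometry relative to 0.1% DMSO controls. The thermal stability score (sum of log2 fold changes minus the abundance score) was transformed to a z-score; mean of n = 3 experiments.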
# [2] = compound: O=[As]([O-])(O)O.[K+] [potassium arsenate]; assay: as above; settings: HeLa; arsenate concentration 1 mM
# Procedure: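 Cellular thermal proteome profiling in HeLa cells treated with 1 mM arsenate for 1 h (DMSO pretreatment), heated to ten temperatures (37-66.3 °C). Soluble protein was quantified by TMT mass spectrometry relative to DMSO controls; the thermal stability score was transformed to a z-score; mean of n = 3 experiments.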
# [3] = arsenate co-treatment: 1 mM arsenate 1 h
# 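Further: each temperature applied for 3 min, abundance score taken as mean log2 fold change at the two lowest temperatures, z-score obtained by mean subtraction and division by SD.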
# UniProt Q8TDN4, sequence (Q8TDN4 whole entry): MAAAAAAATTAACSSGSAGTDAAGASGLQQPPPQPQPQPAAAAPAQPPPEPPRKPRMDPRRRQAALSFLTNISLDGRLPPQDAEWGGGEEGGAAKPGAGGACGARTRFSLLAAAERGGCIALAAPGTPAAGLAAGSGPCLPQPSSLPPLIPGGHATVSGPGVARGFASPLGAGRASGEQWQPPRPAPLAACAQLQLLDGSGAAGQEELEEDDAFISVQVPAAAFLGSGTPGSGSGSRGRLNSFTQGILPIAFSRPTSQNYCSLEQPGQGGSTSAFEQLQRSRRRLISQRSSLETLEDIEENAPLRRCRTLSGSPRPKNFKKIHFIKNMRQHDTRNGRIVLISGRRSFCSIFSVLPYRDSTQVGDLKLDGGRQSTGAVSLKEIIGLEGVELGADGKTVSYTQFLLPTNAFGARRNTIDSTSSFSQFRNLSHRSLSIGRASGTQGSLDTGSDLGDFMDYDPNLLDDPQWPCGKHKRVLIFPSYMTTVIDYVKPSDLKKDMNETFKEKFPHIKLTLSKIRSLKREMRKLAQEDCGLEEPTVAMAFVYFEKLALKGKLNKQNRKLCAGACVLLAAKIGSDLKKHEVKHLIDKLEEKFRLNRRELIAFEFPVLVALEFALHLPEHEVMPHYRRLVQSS
# UniProt Q96C57, sequence (Q96C57 whole entry): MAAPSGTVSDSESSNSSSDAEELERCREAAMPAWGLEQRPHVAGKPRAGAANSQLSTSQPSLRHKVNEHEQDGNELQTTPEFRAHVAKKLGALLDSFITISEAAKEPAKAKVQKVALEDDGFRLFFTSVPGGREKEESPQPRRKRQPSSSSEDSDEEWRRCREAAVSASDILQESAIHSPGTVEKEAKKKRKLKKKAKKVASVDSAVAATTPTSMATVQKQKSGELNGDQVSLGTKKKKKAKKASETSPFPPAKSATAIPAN
# UniProt Q9H0W9, sequence (Q9H0W9 whole entry): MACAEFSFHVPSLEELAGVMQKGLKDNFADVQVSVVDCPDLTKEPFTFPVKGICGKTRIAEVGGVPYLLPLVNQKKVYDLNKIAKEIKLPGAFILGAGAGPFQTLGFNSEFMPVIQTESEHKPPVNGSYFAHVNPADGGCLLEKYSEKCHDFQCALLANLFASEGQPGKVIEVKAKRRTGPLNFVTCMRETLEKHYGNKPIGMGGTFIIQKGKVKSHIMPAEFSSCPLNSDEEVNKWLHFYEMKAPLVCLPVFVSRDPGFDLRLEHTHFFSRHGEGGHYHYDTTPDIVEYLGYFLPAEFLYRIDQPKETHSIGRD
# UniProt Q9HAS0, sequence (Q9HAS0 whole entry): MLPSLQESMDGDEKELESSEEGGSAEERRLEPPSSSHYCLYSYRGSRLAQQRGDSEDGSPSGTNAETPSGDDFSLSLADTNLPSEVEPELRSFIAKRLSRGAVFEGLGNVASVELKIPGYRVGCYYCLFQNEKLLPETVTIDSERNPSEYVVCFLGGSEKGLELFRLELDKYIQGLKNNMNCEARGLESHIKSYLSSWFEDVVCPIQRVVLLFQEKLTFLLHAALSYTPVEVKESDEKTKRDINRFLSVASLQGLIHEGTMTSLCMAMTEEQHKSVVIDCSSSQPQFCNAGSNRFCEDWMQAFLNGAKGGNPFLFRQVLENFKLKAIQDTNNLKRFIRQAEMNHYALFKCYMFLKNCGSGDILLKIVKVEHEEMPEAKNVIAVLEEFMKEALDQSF
# UniProt Q9H3H3, sequence (Q9H3H3 whole entry): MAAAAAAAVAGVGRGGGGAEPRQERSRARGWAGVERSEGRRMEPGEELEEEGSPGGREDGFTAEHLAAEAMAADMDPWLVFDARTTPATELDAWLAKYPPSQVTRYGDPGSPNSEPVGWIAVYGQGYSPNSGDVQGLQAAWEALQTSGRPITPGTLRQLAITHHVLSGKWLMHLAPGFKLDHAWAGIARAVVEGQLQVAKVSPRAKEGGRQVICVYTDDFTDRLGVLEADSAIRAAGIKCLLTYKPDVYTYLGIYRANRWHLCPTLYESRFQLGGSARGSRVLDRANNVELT
# UniProt Q53FT3, sequence (Q53FT3 whole entry): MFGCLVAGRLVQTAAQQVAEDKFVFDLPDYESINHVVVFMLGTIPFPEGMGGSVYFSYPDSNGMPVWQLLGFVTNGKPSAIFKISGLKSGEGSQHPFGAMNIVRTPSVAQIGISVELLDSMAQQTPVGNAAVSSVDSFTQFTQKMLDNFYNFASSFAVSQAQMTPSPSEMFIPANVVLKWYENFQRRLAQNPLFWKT
# UniProt Q9BUV8, sequence (Q9BUV8 whole entry): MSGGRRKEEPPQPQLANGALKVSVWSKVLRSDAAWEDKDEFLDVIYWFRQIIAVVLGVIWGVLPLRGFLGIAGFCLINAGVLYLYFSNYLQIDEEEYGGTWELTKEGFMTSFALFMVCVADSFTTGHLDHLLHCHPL
# UniProt Q9GZN8, sequence (Q9GZN8 whole entry): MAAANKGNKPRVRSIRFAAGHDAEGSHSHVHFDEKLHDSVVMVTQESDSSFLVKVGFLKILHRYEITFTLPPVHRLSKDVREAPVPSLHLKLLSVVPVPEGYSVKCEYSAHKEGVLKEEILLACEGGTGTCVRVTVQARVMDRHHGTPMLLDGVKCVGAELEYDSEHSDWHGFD
# UniProt Q96DM3, sequence (Q96DM3 whole entry): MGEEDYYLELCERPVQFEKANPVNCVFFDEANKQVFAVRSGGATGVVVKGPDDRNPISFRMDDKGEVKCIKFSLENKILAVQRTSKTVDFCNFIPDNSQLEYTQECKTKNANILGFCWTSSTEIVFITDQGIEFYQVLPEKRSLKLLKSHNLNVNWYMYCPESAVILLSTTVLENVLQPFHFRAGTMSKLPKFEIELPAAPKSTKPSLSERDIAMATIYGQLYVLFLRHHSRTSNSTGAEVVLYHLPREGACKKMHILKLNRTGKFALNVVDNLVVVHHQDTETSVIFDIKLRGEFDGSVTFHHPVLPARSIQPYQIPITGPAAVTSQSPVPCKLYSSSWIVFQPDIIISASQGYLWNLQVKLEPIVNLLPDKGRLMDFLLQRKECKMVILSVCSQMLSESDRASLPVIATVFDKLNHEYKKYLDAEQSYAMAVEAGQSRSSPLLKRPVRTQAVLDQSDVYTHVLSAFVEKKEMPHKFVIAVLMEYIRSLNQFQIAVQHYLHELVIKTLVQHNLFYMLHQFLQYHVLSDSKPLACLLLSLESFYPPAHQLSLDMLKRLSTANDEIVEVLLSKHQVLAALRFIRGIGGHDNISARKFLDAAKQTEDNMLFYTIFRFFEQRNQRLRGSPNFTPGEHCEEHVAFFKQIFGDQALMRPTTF
# UniProt Q9HB71, sequence (Q9HB71 whole entry): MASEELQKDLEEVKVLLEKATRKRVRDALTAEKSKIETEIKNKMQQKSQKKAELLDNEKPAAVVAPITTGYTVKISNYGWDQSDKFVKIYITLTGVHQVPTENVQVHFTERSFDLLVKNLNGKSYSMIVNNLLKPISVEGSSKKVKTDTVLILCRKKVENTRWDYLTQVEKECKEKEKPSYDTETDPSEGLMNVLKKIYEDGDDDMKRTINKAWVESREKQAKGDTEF
# UniProt Q96GQ5, sequence (Q96GQ5 whole entry): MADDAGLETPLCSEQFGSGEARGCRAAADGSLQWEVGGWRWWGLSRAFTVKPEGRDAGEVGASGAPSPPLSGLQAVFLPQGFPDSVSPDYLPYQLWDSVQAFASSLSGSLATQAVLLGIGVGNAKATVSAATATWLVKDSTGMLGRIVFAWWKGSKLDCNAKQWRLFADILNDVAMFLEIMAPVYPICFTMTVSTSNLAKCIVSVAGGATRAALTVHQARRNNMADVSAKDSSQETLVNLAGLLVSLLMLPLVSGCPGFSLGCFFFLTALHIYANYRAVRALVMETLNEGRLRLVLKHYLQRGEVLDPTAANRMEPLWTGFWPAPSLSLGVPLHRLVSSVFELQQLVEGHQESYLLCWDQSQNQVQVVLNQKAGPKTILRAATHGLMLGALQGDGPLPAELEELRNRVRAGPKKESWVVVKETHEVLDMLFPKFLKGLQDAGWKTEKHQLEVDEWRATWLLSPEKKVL
# UniProt Q9Y376, sequence (Q9Y376 whole entry): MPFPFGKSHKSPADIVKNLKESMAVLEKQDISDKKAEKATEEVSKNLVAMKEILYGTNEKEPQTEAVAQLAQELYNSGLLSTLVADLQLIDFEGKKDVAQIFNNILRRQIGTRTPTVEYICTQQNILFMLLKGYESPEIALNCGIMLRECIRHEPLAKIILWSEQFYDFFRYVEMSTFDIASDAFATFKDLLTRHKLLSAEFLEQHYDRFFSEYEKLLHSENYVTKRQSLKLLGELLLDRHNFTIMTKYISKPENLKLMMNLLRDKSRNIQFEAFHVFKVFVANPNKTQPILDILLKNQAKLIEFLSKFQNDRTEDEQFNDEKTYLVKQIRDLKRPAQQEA
# UniProt Q9BQ61, sequence (Q9BQ61 whole entry): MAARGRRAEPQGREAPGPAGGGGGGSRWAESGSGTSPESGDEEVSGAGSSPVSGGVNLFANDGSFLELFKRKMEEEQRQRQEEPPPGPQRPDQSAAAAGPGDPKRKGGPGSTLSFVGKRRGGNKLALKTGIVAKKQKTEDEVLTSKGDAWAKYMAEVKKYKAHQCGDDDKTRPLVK
# UniProt Q32NC0, sequence (Q32NC0 whole entry): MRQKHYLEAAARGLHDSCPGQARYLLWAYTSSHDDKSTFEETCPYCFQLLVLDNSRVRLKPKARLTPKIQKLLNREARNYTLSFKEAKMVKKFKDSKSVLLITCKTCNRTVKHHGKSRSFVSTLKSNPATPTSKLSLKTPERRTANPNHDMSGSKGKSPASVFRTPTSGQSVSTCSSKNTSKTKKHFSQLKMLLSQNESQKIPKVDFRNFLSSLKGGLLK
# UniProt Q8N5I9, sequence (Q8N5I9 whole entry): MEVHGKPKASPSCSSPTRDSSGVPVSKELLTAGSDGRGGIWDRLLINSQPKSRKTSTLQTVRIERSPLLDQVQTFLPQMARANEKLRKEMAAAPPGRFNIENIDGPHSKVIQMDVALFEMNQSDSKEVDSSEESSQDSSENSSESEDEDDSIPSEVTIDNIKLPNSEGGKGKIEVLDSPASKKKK
# UniProt Q8WUR7, sequence (Q8WUR7 whole entry): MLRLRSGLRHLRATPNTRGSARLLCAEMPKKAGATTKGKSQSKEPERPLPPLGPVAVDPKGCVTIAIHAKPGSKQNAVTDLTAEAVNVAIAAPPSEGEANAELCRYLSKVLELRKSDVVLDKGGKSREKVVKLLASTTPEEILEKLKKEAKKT
Target,"thermal stability z-score [1, 3]",thermal stability z-score ([1]; arsenate co-treatment: none),thermal stability z-score [2]
C11ORF54 (UniProt Q9H0W9),2.36,3.02,0.829
C11ORF68 (UniProt Q9H3H3),-0.438,-0.551,0.538
C11ORF73 (UniProt Q53FT3),0.0228,0.0059,-0.162
C11ORF98 (UniProt E9PRG8),-0.688,-0.534,-1.91
C12ORF10 (UniProt Q9HB07),-0.0259,-1.16,0.0961
C12ORF29 (UniProt Q8N999),0.423,-0.117,-1.5
C12ORF43 (UniProt Q96C57),0.941,-0.0235,-1.08
C12ORF45 (UniProt Q8N5I9),0.42,0.511,0.591
C14ORF166 (UniProt Q9Y224),0.126,0.251,-0.994
C15ORF38|ARPIN,-0.167,0.382,0.206
C15ORF40 (UniProt Q8WUR7),0.334,-0.344,-1.19
C16ORF13 (UniProt Q96S19),0.306,0.154,0.536
C16ORF58 (UniProt Q96GQ5),-0.446,-0.183,-0.192
C16ORF62 (UniProt Q7Z3J2),0.411,0.213,0.119
C17ORF59 (UniProt Q96GS4),0.136,-0.131,-0.163
C17ORF62 (UniProt Q9BQA9),0.898,0.761,1.37
C17ORF75 (UniProt Q9HAS0),0.0162,-0.0686,-0.0267
C17ORF80 (UniProt Q9BSJ5),-1.48,-1.08,-0.529

Target,"thermal stability z-score [1, 3]",thermal stability z-score ([1]; arsenate co-treatment: none),thermal stability z-score [2]
C18ORF8 (UniProt Q96DM3),0.827,0.41,-0.638
C18ORF21 (UniProt Q32NC0),-0.42,-0.189,-2.28
C18ORF25 (UniProt Q96B23),-0.688,-0.189,0.363
C19ORF43 (UniProt Q9BQ61),0.121,0.217,-0.0224
C19ORF52 (UniProt Q9BSF4),0.441,0.873,0.873
C19ORF53 (UniProt Q9UNZ5),0.3,0.508,-0.988
C19ORF70|MIC13,0.265,0.131,0.22
C20ORF24 (UniProt Q9BUV8),0.799,0.361,-0.477
C20ORF27 (UniProt Q9GZN8),0.247,0.189,-0.583
C21ORF59 (UniProt P57076),0.103,0.1,0.112
CAB39 (UniProt Q9Y376),0.454,0.641,-0.245
CABLES1 (UniProt Q8TDN4),0.124,0.218,-0.0215
CACTIN (UniProt Q8WUQ7),-0.265,-0.163,-0.0248
CACUL1 (UniProt Q86Y37),0.0904,0.129,-0.563
CACYBP (UniProt Q9HB71),0.276,0.0201,0.37
CAD (UniProt P27708),-0.284,-1.08,-0.201
CADM1 (UniProt Q9BY67),0.995,0.905,0.376
